Assay results as given in PubChem BioAssay AID1963856 (Molecular Pharmacology Branch, DTP, NCI, 2024).

System: LG0567-F671-PDC KRAS tumor spheroid viability
Assay: Anticancer human tumor LG0567-F671-PDC patient-derived lung adenocarcinoma cell line growth inhibition [KRAS2]
Conditions: spheroids with HUVEC and MSC; for viability, T/C: stronger effect = lower value
From the text: Multicellular complex tumor spheroid response to RAS pathway inhibitors in combination with a targeted agents in patient-derived cell lines with oncogenic KRAS variants from multiple cancer types
A high-throughput screen of multi-cell type tumor spheroids was designed to identify active combinations of targeted small molecules and KRAS pathway inhibitors. Complex spheroids include a stromal component modeled by human endothelial cells (HUVEC) and fibroblasts modeled by human mesenchymal stem cells (MSCs). The concentration ranges selected for each drug and investigational agent were based upon clinically achievable concentrations if the clinical Cmax of the agent was known.
Compounds. The drugs and investigational agents: BI-3406 (NSC825286), BAY-293 (NSC824723), batoprotafib (TNO155; NSC825523), sotorasib (AMG 510; NSC818433), MRTX1257 (NSC819558), elimusertib (BAY 1895344; NSC800525), molibresib (GSK525762; NSC774829), temuterkib (LY3214996; NSC803410), venetoclax (NSC766270), alisertib (NSC759677), olaparib (NSC753686), talazoparib (NSC767125), erdafitinib (NSC781556), ipatasertib (NSC767898), cabozantinib (NSC761068), nintedanib (NSC756659), abemaciclib (NSC768073), docetaxel (NSC628503), trametinib (NSC758246), and sapanisertib (NSC764658) were obtained from the National Cancer Institute (NCI) Developmental Therapeutics Program Chemical Repository. The FDA-approved anticancer drug set is available from the Developmental Therapeutics Program. […] The stock solutions were prepared in dimethyl sulfoxide (DMSO, Sigma-Aldrich, St. Louis, MO, cat. D2650) at 800-fold the tested concentration and stored at -70 degrees C prior to their use. All drugs and investigational agents were tested over a range starting from a high concentration at or near the clinical Cmax and decreasing in half-log increments. If the clinical Cmax for an agent had not been determined, the highest concentration tested was 10 microM.
Cell Culture. All cells were maintained in an incubator at 37 degrees C and 5% CO2 with 95% humidity. The PDC lines were cultured according to standard operating procedures established by the NCI PDMR (https://pdmr.cancer.gov/sops/default.htm). Briefly, all PDCs were thawed and cultured in Matrigel-coated flasks prepared with a working solution of 1X Ham's F-12 nutrient mix, without supplementation (Invitrogen, Waltham, MA, cat. 11765054), 100 U/mL penicillin-streptomycin (Invitrogen, cat. 15140122), and 2.5% Matrigel (Corning Inc., Corning, NY, cat. 354248) for the first three passages. All PDCs were cultured in complete DMEM/F-12 media containing advanced DMEM/F-12 (Invitrogen, cat. 12634028), 4.9% defined fetal bovine serum, heat inactivated (HyClone Laboratories Inc., Logan, UT, cat. SH30070.03HI), 389 ng/mL hydrocortisone (Sigma-Aldrich, cat. H4001), 9.7 ng/mL human EGF recombinant protein (Invitrogen, cat. PHG0313), 23.4 microg/mL adenine (Sigma-Aldrich, cat. A2786), 97.3 U/mL penicillin-streptomycin (Invitrogen, cat. 15140122), 1.9 mM L-glutamine (Invitrogen, cat. 25030081), and 9.7 microM Y-27632 dihydrochloride (Tocris Bioscience, Bristol, United Kingdom, cat. 1254). The PDCs were cultured in complete DMEM/F12 media without 9.7 microM Y-27632 dihydrochloride for at least two passages prior to the screen. The established cell line HOP-62 was cultured in RPMI 1640 medium, HEPES (Invitrogen, cat. 22400105) with 10% defined fetal bovine serum (HyClone Laboratories Inc., cat. SH30070.03) and 2 mM L-glutamine (Invitrogen, cat. 25030081). The pooled donor HUVEC were cultured in endothelial cell growth medium 2 (PromoCell, Heidelberg, Germany, cat. C-22011) and the hMSC were cultured in mesenchymal stem cell growth medium 2 (PromoCell, cat. C-28009). For all experiments, HUVEC and hMSC were used at passages </=5, while the malignant cell lines were used at passages </=15. […]

[1] = curve of first compound, second compound 0.1 µM
[2] = curve of first compound, second compound 0.316 µM
[3] = curve of first compound, second compound 1 µM
[4] = curve of first compound, second compound 3.16 µM
[5] = curve of first compound, second compound 10 µM
[6] = second compound 0.1 µM, first compound 0.0316 µM
[7] = second compound 0.1 µM, first compound 0.1 µM
[8] = second compound 0.1 µM, first compound 0.316 µM
[9] = second compound 0.1 µM, first compound 1 µM
[10] = second compound 0.1 µM, first compound 3.16 µM
[11] = second compound 0.1 µM, first compound 10 µM
[12] = second compound 0.316 µM, first compound 0.0316 µM
[13] = second compound 0.316 µM, first compound 0.1 µM
[14] = second compound 0.316 µM, first compound 0.316 µM
[15] = second compound 0.316 µM, first compound 1 µM
[16] = second compound 0.316 µM, first compound 3.16 µM
[17] = second compound 0.316 µM, first compound 10 µM
[18] = second compound 1 µM, first compound 0.0316 µM
[19] = second compound 1 µM, first compound 0.1 µM
[20] = second compound 1 µM, first compound 0.316 µM
[21] = second compound 1 µM, first compound 1 µM
[22] = second compound 1 µM, first compound 3.16 µM
[23] = second compound 1 µM, first compound 10 µM
[24] = second compound 3.16 µM, first compound 0.0316 µM
[25] = second compound 3.16 µM, first compound 0.1 µM
[26] = second compound 3.16 µM, first compound 0.316 µM
[27] = second compound 3.16 µM, first compound 1 µM
[28] = second compound 3.16 µM, first compound 3.16 µM
[29] = second compound 3.16 µM, first compound 10 µM
[30] = second compound 10 µM, first compound 0.0316 µM
[31] = second compound 10 µM, first compound 0.1 µM
[32] = second compound 10 µM, first compound 0.316 µM
[33] = second compound 10 µM, first compound 1 µM
[34] = second compound 10 µM, first compound 3.16 µM
[35] = second compound 10 µM, first compound 10 µM
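Also: drug exposure lasted seven days after spheroids formed for three days.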
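For viability, T/C in this document: 100% = DMSO vehicle control viability.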

SMILES | IC50 [1] [µM] | IC50 [2] [µM] | IC50 [3] [µM] | IC50 [4] [µM] | IC50 [5] [µM] | viability, T/C [6] [%] | viability, T/C [7] [%] | viability, T/C [8] [%] | viability, T/C [9] [%] | viability, T/C [10] [%] | viability, T/C [11] [%] | viability, T/C [12] [%] | viability, T/C [13] [%] | viability, T/C [14] [%] | viability, T/C [15] [%] | viability, T/C [16] [%] | viability, T/C [17] [%] | viability, T/C [18] [%] | viability, T/C [19] [%] | viability, T/C [20] [%] | also measured
COC(=O)c1ccc2c(C(=Nc3ccc(N(C)C(=O)CN4CCN(C)CC4)cc3)c3ccccc3)c(O)[nH]c2c1 | – | – | – | – | – | – | – | – | – | – | – | – | – | – | – | – | – | – | – | – | viability, T/C (compound 0.1 µM): 91% [middle of 5 runs]; viability, T/C (compound 1 µM): 90.2% [middle of 5 runs]; viability, T/C (compound 3.16 µM): 93% [middle of 5 runs]; viability, T/C (compound 10 µM): 94.1% [middle of 5 runs]; IC50 (curve of compound): > 10 µM
CC(C)NCC(C(=O)N1CCN(c2ncnc3c2C(C)CC3O)CC1)c1ccc(Cl)cc1 (stereo not given) + CC1OCC2(CCN(c3cnc(Sc4ccnc(N)c4Cl)c(N)n3)CC2)C1N | < 0.0316 | < 0.0316 | < 0.0316 | < 0.0316 | < 0.0316 | 48.9 | 38.3 | 29.8 | 31.9 | 33.6 | 36.5 | 37.1 | 30.9 | 21.5 | 20.5 | 18.6 | 16.6 | 26.4 | 22.4 | 14.3 | viability, T/C [21]: 11.9%; viability, T/C [22]: 10%; viability, T/C [23]: 6.25%; viability, T/C [24]: 21.2%; viability, T/C [25]: 17.3%; viability, T/C [26]: 10.9%; viability, T/C [27]: 5.23%; viability, T/C [28]: 4.49%; viability, T/C [29]: 3.72%; viability, T/C [30]: 6.83%; viability, T/C [31]: 7.98%; viability, T/C [32]: 5.46%; viability, T/C [33]: 3.11%; viability, T/C [34]: 2.15%; viability, T/C [35]: 1.82%
COc1cc(Nc2ncc3c(n2)-c2ccc(Cl)cc2C(c2c(F)cccc2OC)=NC3)ccc1C(=O)O + COc1cc2nc(C)nc(NC(C)c3cc(N)cc(C(F)(F)F)c3)c2cc1OC1CCOC1 | 2.45 | < 0.0316 | 0.169 | < 0.0316 | < 0.0316 | 64.3 | 59.9 | 60.9 | 55.1 | 48.9 | 36 | 46.6 | 50.2 | 43.3 | 47.1 | 36 | 28.2 | 48.3 | 53.7 | 49.5 | viability, T/C [21]: 44.5%; viability, T/C [22]: 37.9%; viability, T/C [23]: 28.8%; viability, T/C [24]: 40%; viability, T/C [25]: 44.4%; viability, T/C [26]: 46.1%; viability, T/C [27]: 36.9%; viability, T/C [28]: 32.7%; viability, T/C [29]: 23.6%; viability, T/C [30]: 40.2%; viability, T/C [31]: 37.8%; viability, T/C [32]: 37.7%; viability, T/C [33]: 33.1%; viability, T/C [34]: 27.6%; viability, T/C [35]: 18.9%
Cn1nccc1Nc1nccc(-c2cc3c(s2)C(C)(C)N(CCN2CCOCC2)C3=O)n1 + COc1cc2nc(C)nc(NC(C)c3cc(N)cc(C(F)(F)F)c3)c2cc1OC1CCOC1 | 0.495 | 0.456 | 0.506 | 0.528 | 0.609 | 79.7 | 67 | 55.3 | 43.2 | 31.3 | 26.6 | 80.5 | 70.7 | 53.9 | 42.1 | 25.3 | 26.1 | 68.2 | 68 | 54.8 | viability, T/C [21]: 41.5%; viability, T/C [22]: 30.3%; viability, T/C [23]: 25.5%; viability, T/C [24]: 71.1%; viability, T/C [25]: 65.6%; viability, T/C [26]: 56.5%; viability, T/C [27]: 42.9%; viability, T/C [28]: 30.8%; viability, T/C [29]: 30.2%; viability, T/C [30]: 74.6%; viability, T/C [31]: 72.2%; viability, T/C [32]: 55.8%; viability, T/C [33]: 45.4%; viability, T/C [34]: 33.4%; viability, T/C [35]: 29.5%
